This note sets out measurements from article PMC3161630, “Targeted Chemotherapy Using a Cytotoxic Somatostatin Conjugate to Inhibit Tumor Growth and Metastasis in Nude Mice” (Clinical Medicine. Oncology, 2008).

For one experiment, the system named is leukemia MOLT-4 cells. The experiment can be described thus: Cell proliferation assay (MTT), MOLT-4. Format: cell-based, human. The following applies: table: mean ± SEM (n). The procedure: (§1) The CHO-R1 and CHO-R2 cell lines, which were transfected with rat SSTR1 and SSTR2, respectively, were a kind gift from Dr. Agnes Schonbrunn (University of Texas—Houston, Houston, TX). Cells were cultured in F-12 medium containing 10% fetal calf serum. All other human tumor cell lines, including neuroblastoma IMR32, leukemia MOLT-4, pancreatic cancer CFPAC-1, prostate cancer PC-3 were purchased from ATCC (American Type Culture Collection, Manassas, VA). Human pancreatic carcinoid BON cells were a kind gift from Dr. Courtney Townsend (University of Texas—Galveston) and cultured as described previously.
(§2) The kits for the cell proliferation assay (MTT Assay) were purchased from Promega (Madison, WI) and the protocol was the same as described previously.

For experiment [1], the system named is neuroblastoma IMR32 cells. The experiment can be described thus: Cell proliferation assay (MTT), IMR32. It counts as cell-based, human. The following applies: table: mean ± SEM (n). Here is the method:
as §1, §2

The test system of experiment [2] is pancreatic carcinoid BON tumors. The experiment can be described thus: Tumor growth, continuous drug-releasing pellets, BON tumors. The following applies: 5 mg/pellet. Format: in vivo, nude mice. Here is the method:
The cytotoxic CPT-SST conjugate JF-10-81 was synthesized as described previously. Continuous drug-releasing pellets containing JF-10-81 (5 mg/pellet) formulated to release drug for 60 days, were made by Innovative Research of America (Sarasota, FL).
Male nude mice, 5–7 weeks of age upon arrival, were purchased from the National Cancer Institute (NCI, Frederik, MD). The animal study was approved by the Tulane University Health Sciences Center Institutional Animal Care and Use Committee (IACUC).
The tumor tissue segments, grown from CFPAC-1, IMR32, MOLT-4 and BON cells injected into nude mice, were s.c. implanted into the flanks of nude mice as described previously. All the tumors were passaged from mouse to mouse. Tumor-carrying mice then were implanted with continuous drug-releasing pellets containing 5 mg of JF-10-81.
For treatments of pancreatic cancer CFPAC-1 tumors, mice were separated into 2 groups. Each mouse in the control group was implanted with a placebo pellet. Each mouse in the test group was implanted with a pellet containing JF-10-81 (5 mg/pellet) with a drug-release time of 60 days. Tumor volumes were measured and bodyweights were taken once a week. The treatment for all other tumors (BON, IMR32 and MOLT-4) was the same as above.

The subject of experiment [3] is prostate cancer PC-3 cells. The experiment can be described thus: Cell proliferation assay (MTT), PC-3. Format: cell-based, human. The following applies: table: mean ± SEM (n). Here is the method:
as §1, §2

For experiment [4], the system named is pancreatic cancer CFPAC-1 cells. The experiment can be described thus: Cell proliferation assay (MTT), CFPAC-1. It counts as cell-based, human. Conditions: table: mean ± SEM (n). Here is the method: as §1, §2
Experiment [5] relates to pancreatic carcinoid BON cells. The experiment can be described thus: Cell proliferation assay (MTT), BON. The following applies: table: mean ± SEM (n). It counts as cell-based, human. The procedure:
as §1, §2

Experiment [6] relates to non-transfected CHO cells. The experiment can be described thus: Ligand-receptor binding assay, non-transfected CHO cells. The procedure: The assay was performed as a modification of the one previously described. The binding buffer contained Dulbecco’s Modified Eagle’s Medium (DMEM), 50 mM HEPES, 2 mM glutamine, 11.5 mM glucose, 1% bovine serum albumin (BSA) and 5 mM sodium pyruvate. The binding reactions took place in 1.5 ml eppendorf tubes containing 70–100 pM of [^125I]Tyr^11-SST-14 from PerkinElmer (Boston, MA 02118–2512), 1–1.5 × 10^5 cells and the tested SST analogs (10^−5 to 10^−13 M) for a total volume of 300 μl. These were incubated at room temperature for 50–60 minutes and centrifuged for 1–2 min at 9,000 g. The cell pellets were washed twice with phosphate-buffered saline (PBS) and counted for total radioactivity in a Titertek gamma counter (Huntsville, AL). The analyses were done using GraphPad Prism 4.0 (San Diego, […]). For further internalization, cells were then re-suspended and incubated in HBSS (pH4, acetic acid) on ice for 10 min, washed with cold PBS and then re-counted for radioactivity. Due to the radioactivity of membrane-bound receptors being released by the acid wash, the remaining radioactivity represents the internalized peptide.

Usually EC50 stands for the concentration giving half of the maximal effect. Low values mean greater potency, high ones weaker potency. On to `CC[C@@]1(O)C(=O)OCc2c1cc1n(c2=O)Cc2cc3ccccc3nc2-1` [CPT, camptothecin], for which the EC50 in the experiment with leukemia MOLT-4 cells (Homo sapiens, MOLT-4, MTT assay) was determined as 2 nM; in the experiment with leukemia MOLT-4 cells (MTT assay), 1.96 ± 0.32 nM; in experiment [1] (Homo sapiens, IMR-32, MTT assay) it was 2.8 nM; in experiment [1] (MTT assay), 2.82 ± 0.14 nM; in experiment [3] (Homo sapiens, PC-3, MTT assay), 20.8 nM; in experiment [3] (MTT assay), 20.8 ± 2.82 nM. In addition, the EC50 stood at 25.5 nM in experiment [4] (Homo sapiens, CFPAC-1, MTT assay); 25.5 ± 5.6 nM in experiment [4] (MTT assay); 171 nM in experiment [5] (Homo sapiens); 171 ± 14.6 nM in experiment [5]. For the same compound, the “Inhibition (%)” value in experiment [2] (42 days, vs placebo) amounted to 42%. Further, the “percentage increase of tumor volumes” value in experiment [2] (vs initial) came to 278%.

`C[C@H](N)C(=O)NCC(=O)N[C@H]1CSSC[C@@H](C(=O)O)NC(=O)[C@H](CO)NC(=O)[C@H]([C@@H](C)O)NC(=O)[C@H](Cc2ccccc2)NC(=O)[C@H]([C@@H](C)O)NC(=O)[C@H](CCCCN)NC(=O)[C@H](Cc2c[nH]c3ccccc23)NC(=O)[C@H](Cc2ccccc2)NC(=O)[C@H](Cc2ccccc2)NC(=O)[C@H](CC(N)=O)NC(=O)[C@H](CCCCN)NC1=O` [SST-14]: in experiment [6], the “affinity to the non-transfected CHO cells” value is “no affinity”.
